Assay results as given in patent US9283208B2, “Medicaments and methods for treating cancer” (NIIKI PHARMA INC., priority 2011, dated 2016).
Marks after values point to notes of the source that are not given here.

How the values were obtained:
[1] = Pharmacokinetics in patients: plasma total ruthenium; type: in vivo, human; settings: for C1D8 Hour 0 ng/mL Ru / C2D1 Hour 0 ng/mL Ru: pre-infusion trough
Experimental: (§1) Pharmacokinetics: PK samples were obtained 0, 0.25, 0.5, 1, 2, 4, 6-8, 10-12, and 24 hours after the start of the infusion on Cycle 1 Day 1 as well as pre-infusion on Cycle 1 Day 8 and Cycle 2 Day 1. Plasma and urine were analyzed for total ruthenium [Ru] (free and bound). […] Peak plasma Ru levels were achieved by hour 2 (FIG. 2A). […] The estimated T½ is 91.4-112 hours.

[2] = system: advanced solid tumors refractory to treatment; experiment: Phase I dose-escalation trial (US): anti-tumor activity (partial response or stable disease); type: in vivo, human
From the text: (§2) Two Phase I dose-escalation clinical studies involving sodium trans-[tetrachlorobis(1H-indazole)ruthenate (III)] (“test drug”) have been conducted. The primary objective of both studies is to determine the safety, tolerability and maximal tolerated dose (MTD) of the test drug. Secondary objectives are to estimate the PK parameters, to identify any preliminary evidence of anti-tumor activity of the test drug in patients with advanced cancers, and to explore pharmacodynamic (PD) endpoints which may be of use in the further development of the test drug.
(§3) In the first trial which has been conducted in two centers in the US, the “test drug” was given intravenously once a week, i.e., on days 1, 8, and 15 of each 28-day cycle to patients with advanced solid tumors refractory to treatment. The patients had advanced solid tumors that had been heavily treated previously, had failed an average of 7 previous lines of chemotherapy, and had progressing disease at the time of entry into the trial. Standard 3+3 design with expanded cohort up to 25 patients at the maximal tolerated dose (MTD).
36 pts completed ≧one cycle of therapy and are evaluable to assess antitumor efficacy. […] All patients had PD at study entry.

[3] = system: certain types of cancer; settings: See U.S. Pat. No. 7,338,946; cited from earlier work
[4] = system: advanced solid tumors refractory to treatment; experiment: Phase I dose-escalation trial (UK): anti-tumor effect; type: in vivo, human
From the text: as §2
(§4) The second trial was conducted in two centers in the United Kingdom (UK) with the test drug being administered on days 1 through 4 of each 21-day cycle to patients with advanced solid tumors refractory to treatment. The patients had been heavily pre-treated and had failed an average of 3 previous lines of chemotherapy. Dose escalation progressed from 20 to 500 mg/m^2.

[5] = Pharmacokinetics in patients: urinary excretion of ruthenium; type: in vivo, human; settings: in the 24 hours following Cycle 1 Day 1 dosing
Experimental: as §1

[6] = system: patients with advanced solid tumors refractory to treatment; experiment: Infusional fever with or without steroid premedication (US trial); type: in vivo, human
Experimental: (§5) Thereafter, in the US trial, in some patients, premedication of decadron (dexamethasone) was administered, with or without 5HT3 antagonists (serotonin antagonists) like ondansetron and granisetron. The decadron was given to prevent fever, at 4-10 mg IV. […] None of the patients premedicated with decadron had any incidence of infusion-related fever.

[7] = system: patients with advanced solid tumors refractory to treatment; experiment: Phase I dose-escalation trial (UK): adverse reactions; type: in vivo, human; settings: dose of 320 mg/m^2 and above
Experimental: as §4, §5

[8] = system: patients with advanced solid tumors refractory to treatment; experiment: Phase I dose-escalation trial (US): safety, tolerability, DLT and MTD; type: in vivo, human
From the text: as §2, §3
Major Inclusion/Exclusion Criteria: • Patients≧18 years with histologically or cytologically confirmed advanced solid tumors refractory to standard therapies • ECOG PS 0 or 1 • Adequate hematologic, hepatic and renal function • No symptomatic CNS metastases, no primary brain tumors • No evidence of ischemia, recent MI, or significant abnormality on ECG • No Peripheral neuropathy ≧Grade 2 • Minimum life expectancy ≧12 weeks
Definition of Dose Limiting Toxicity (DLT):
Toxicity severity graded according to the CTCAE (ver. 3.0); occurring during Cycle 1 and related to test drug: • Grade 4 neutropenia for ≧7 days • Febrile neutropenia • Grade 4 thrombocytopenia or Grade • ≧Grade 2 neurotoxicity • ≧Grade 2 cardiotoxicity • Grade 2 hypersensitivity reaction or infusion reaction • Any other non-hematologic Grade 3 or 4 toxicity other than nausea/vomiting or alopecia • Inability to complete the first cycle due to any toxicity thought to be related to test drug.

[9] = 320 mg/m^2, total drug 630 mg, NET (carcinoid tumor of small intestine), 3 prior systemic therapies
[10] = 320 mg/m^2, total drug 630 mg, NET (carcinoid tumor of small intestine), 3 prior systemic therapies, listed as Sodium trans-[tetrachlorobis(1H-indazole)ruthenate (III)]
[11] = US trial, IV once a week on days 1, 8, 15 of 28-day cycle

With `[Cl][Ru-]([Cl])([Cl])[Cl].[Na+].c1ccc2[nH]ncc2c1.c1ccc2[nH]ncc2c1` [test drug, sodium trans-[tetrachlorobis(1H-indazole)ruthenate (III)]] the “C1D1 Hour 24 ng/mL Ru” value ([1]; 20 mg/m^2, plasma total Ru) was 1366 ng/mL Ru, the “C1D8 Hour 0 ng/mL Ru” value ([1]; 20 mg/m^2, plasma total Ru) was 528 ng/mL Ru and the “C2D1 Hour 0 ng/mL Ru” value ([1]; 20 mg/m^2, plasma total Ru) was 670 ng/mL Ru. For the same molecule, the “C1D1 Hour 24 ng/mL Ru” value ([1]; 40 mg/m^2, plasma total Ru) was 2884 ng/mL Ru, the “C1D8 Hour 0 ng/mL Ru” value ([1]; 40 mg/m^2, plasma total Ru) was 1197 ng/mL Ru and the “C2D1 Hour 0 ng/mL Ru” value ([1]; 40 mg/m^2, plasma total Ru) was 1472 ng/mL Ru. The “C1D1 Hour 24 ng/mL Ru” value ([1]; 80 mg/m^2, plasma total Ru) was 4831 ng/mL Ru, the “C1D1 Hour 24 ng/mL Ru” value ([1]; 160 mg/m^2, plasma total Ru) was 4639 ng/mL Ru and the “C1D8 Hour 0 ng/mL Ru” value ([1]; 160 mg/m^2, plasma total Ru) was 4000 ng/mL Ru. For the same molecule, the “C2D1 Hour 0 ng/mL Ru” value ([1]; 160 mg/m^2, plasma total Ru) was 6588 ng/mL Ru, the “C1D1 Hour 24 ng/mL Ru” value ([1]; 320 mg/m^2, plasma total Ru) was 20033 ng/mL Ru and the “C1D8 Hour 0 ng/mL Ru” value ([1]; 320 mg/m^2, plasma total Ru) was 7667 ng/mL Ru. For the same molecule, the “C2D1 Hour 0 ng/mL Ru” value ([1]; 320 mg/m^2, plasma total Ru) was 10126 ng/mL Ru, the “C1D1 Hour 24 ng/mL Ru” value ([1]; 420 mg/m^2, plasma total Ru) was 25921 ng/mL Ru and the “C1D8 Hour 0 ng/mL Ru” value ([1]; 420 mg/m^2, plasma total Ru) was 9595 ng/mL Ru. For the same molecule, the “C2D1 Hour 0 ng/mL Ru” value ([1]; 420 mg/m^2, plasma total Ru) was 14698 ng/mL Ru, the “C1D1 Hour 24 ng/mL Ru” value ([1]; 500 mg/m^2, plasma total Ru) was 28070 ng/mL Ru and the “C1D8 Hour 0 ng/mL Ru” value ([1]; 500 mg/m^2, plasma total Ru) was 11880 ng/mL Ru. The “C2D1 Hour 0 ng/mL Ru” value ([1]; 500 mg/m^2, plasma total Ru) was 13000 ng/mL Ru, the “C1D1 Hour 24 ng/mL Ru” value ([1]; 625 mg/m^2, plasma total Ru) was 35216 ng/mL Ru and the “C1D8 Hour 0 ng/mL Ru” value ([1]; 625 mg/m^2, plasma total Ru) was 12303 ng/mL Ru. The “C2D1 Hour 0 ng/mL Ru” value ([1]; 625 mg/m^2, plasma total Ru) was 14363 ng/mL Ru, the “C1D1 Hour 24 ng/mL Ru” value ([1]; 780 mg/m^2, plasma total Ru) was 43105 ng/mL Ru and the “C1D8 Hour 0 ng/mL Ru” value ([1]; 780 mg/m^2, plasma total Ru) was 17001 ng/mL Ru. The “C2D1 Hour 0 ng/mL Ru” value ([1]; 780 mg/m^2, plasma total Ru) was 22125 ng/mL Ru, the “dose proportionality of Cmax and AUC0-168” value ([1]; 20 to 780 mg/m^2) was “good dose proportionality” and the “time by which peak plasma Ru levels were achieved” value ([1]; after start of infusion, Cycle 1 Day 1) was ≤ 2 h. For the same molecule, the “accumulation of Ru following dosing” value ([1]; noted by Cycle 1 Day 8 and Cycle 2 Day 1 levels) was “There is accumulation of Ru following dosing”, the “estimated T½” value ([1]; plasma total Ru, patients) was 91.4 to 112 h and the “Patients replaced in due to PD in Cycle 1” value (shortened to “Patients replaced in due”) ([2]; 320 mg/m^2, 7 patients dosed) was 1. For the same molecule, the Duration of therapy ([2]; 320 mg/m^2, total drug 531 mg, NSCLC, 7 prior systemic therapies) was 16 weeks, the Duration of therapy ([2]; 320 mg/m^2, total drug 618 mg, NSCLC, 4 prior systemic therapies) was 16 weeks and the Duration of therapy [2, 9] was 100+ weeks. The Response [2, 9] was “PR (partial response (PR))”, the Duration of therapy [2, 10] was “over 100 weeks” and the Response [2, 10] was “tumor regression and partial response”. The “Patients replaced in due” value ([2]; 420 mg/m^2, 5 patients dosed) was 2, the Duration of therapy ([2]; 420 mg/m^2, total drug 832 mg, NET, 0 prior systemic therapies (failed 4 prior chemo- and Yttrium-embolization procedures)) was 24 weeks and the Duration of therapy ([2]; 500 mg/m^2, total drug 890 mg, Unknown primary, 2 prior systemic therapies) was 22 weeks. The Duration of therapy ([2]; 625 mg/m^2, total drug 1175 mg, GE Junction, 3 prior systemic therapies) was 12+ weeks, the Duration of therapy ([2]; 625 mg/m^2, total drug 1190 mg, CRC, 3 prior systemic therapies) was 12 weeks and the “Patients replaced in due” value ([2]; 780 mg/m^2, 9 patients dosed) was 1. The Duration of therapy ([2]; 780 mg/m^2, total drug 1450 mg, Sarcoma, 3 prior systemic therapies) was 16 weeks, the Duration of therapy ([2]; 780 mg/m^2, total drug 1544 mg, NET, 1 prior systemic therapy) was 27+ weeks and the “minimum effective dosage for general use of treating cancer” value ([2]; human dose escalating clinical trial) was 320 mg/m^2. The “inducing apoptosis in certain types of cancer” value [3] was “highly potent”, the “# weeks of treatment” value ([4]; Patient 1, 20 mg/m^2, Esophageal) was 2 weeks and the “# weeks of treatment” value ([4]; Patient 2, 40 mg/m^2, Head & Neck) was 4 weeks. The “Anti-tumor effect (best response)” value ([4]; Patient 2, 40 mg/m^2 days 1 through 4 of 21-day cycle, Head & Neck) was “Stable disease”, the “# weeks of treatment” value ([4]; Patient 3, 80 mg/m^2, Mesothelioma) was 2 weeks and the “# weeks of treatment” value ([4]; Patient 4, 160 mg/m^2, Cecum) was 2 weeks. The “# weeks of treatment” value ([4]; Patient 5, 320 mg/m^2, Anal) was 1 weeks, the “# weeks of treatment” value ([4]; Patient 6, 500 mg/m^2, Rectal) was 4 weeks and the “Anti-tumor effect (best response)” value ([4]; Patient 6, 500 mg/m^2 days 1 through 4 of 21-day cycle, Rectal) was “Stable disease”. The “# weeks of treatment” value ([4]; Patient 7, 500 mg/m^2, Esophageal) was 2 weeks, the “urinary excretion of the test drug derived ruthenium” value [5] was “low urinary excretion” and the “# with fever” value ([6]; 320 mg/m^2, no steroid premedication, 3 patients) was 0. For the same molecule, the “# with fever” value ([6]; 320 mg/m^2, steroid premedication, 4 patients) was 0, the “# with fever” value ([6]; 420 mg/m^2, no steroid premedication, 3 patients, one had fever but then none after premed of additional doses) was 2* and the “# with fever” value ([6]; 420 mg/m^2, steroid premedication, 2 patients) was 0. The “# with fever” value ([6]; 500 mg/m^2, no steroid premedication, 1 patient) was 1, the “# with fever” value ([6]; 500 mg/m^2, steroid premedication, 2 patients) was 0 and the “# with fever” value ([6]; 625 mg/m^2, no steroid premedication, 8 patients) was 1. For the same molecule, the “# with fever” value ([6]; 625 mg/m^2, steroid premedication, 10 patients) was 0, the “# with fever” value ([6]; 780 mg/m^2, no steroid premedication, 3 patients) was 1 and the “# with fever” value ([6]; 780 mg/m^2, steroid premedication, 6 patients) was 0. The “incidence of fever or chill on intravenous infusion” value ([6]; at therapeutically effective doses) was “higher incidence of fever or chill”, the infusional fever ([6]; patients without premedication, US trial) was “high likelihood of infusional fever” and the adverse reactions [7] was “fever and chill were seen”. The “Patients w/ DLT” value ([8]; 320 mg/m^2, 7 patients dosed) was 1, the “major adverse event related to the test drug” value ([8]; 320 mg/m^2 on days 1, 8, 15 of 28-day cycle, carcinoid tumor patient treated over 100 weeks) was “No major adverse event” and the “Patients w/ DLT” value ([8]; 625 mg/m^2, 6 patients dosed) was 1. For the same molecule, the “Patients w/ DLT” value ([8]; 780 mg/m^2, 9 patients dosed) was 3, the “DLT Seen at 780 mg/m^2” value ([8]; 780 mg/m^2, patient, not premedicated with steroids) was “A person had an infusion reaction consisting of fever” and the “time for Grade 2 creatinine elevation to return to baseline” value ([8]; 780 mg/m^2, person one) was “within 1 week”. The “DLT Seen at 780 mg/m^2” value ([8]; 780 mg/m^2, person one, following Cycle 1 Day 1 dosing, fatigue) was “Grade 1 fatigue following Cycle 1 Day 1 dosing associated”, the “DLT Seen at 780 mg/m^2” value ([8]; 780 mg/m^2, person one, following Cycle 1 Day 1 dosing, nausea) was “person one had Grade 2 nausea, Grade 1 vomiting,” and the “time for Grade 2 creatinine elevation to return to baseline” value ([8]; 780 mg/m^2, person two) was ≤ 3 weeks. For the same molecule, the DLT dose [8, 11] was 780 mg/m^2 and the “maximal tolerated dose (MTD)” value [8, 11] was 625 mg/m^2.

For `[Cl-].[Cl-].[Cl-].[Cl-].[Ru+3].c1ccc2[nH][nH+]cc2c1.c1ccc2[nH]ncc2c1.c1ccc2[nH]ncc2c1` [indazolium trans-[tetrachlorobis(1H-indazole)ruthenate (III)], reference compound], the “inducing apoptosis in certain types of cancer” value [3] is listed as “highly potent”.
